Experimental data: patent publication US6737383B1, “Herbicidal oxadiazolidines” (priority 1999, dated 2004)

What was measured:
[1] = test system: giant foxtail; assay: Test B pre/postemergence giant foxtail; format: in vivo, Setaria faberii
In short: (§1)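 Response is a visual 0-to-10 score relative to untreated plants, where 0 means no effect and 10 means complete control, taken twelve to sixteen days after application. Treatments went onto soil at planting and onto foliage of 1- to 4-leaf plants, using a surfactant-containing non-phytotoxic solvent.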

[2] = test system: cocklebur; assay: Test B pre/postemergence cocklebur; format: in vivo, Xanthium strumarium
In short: as §1

[3] = test system: blackgrass; assay: Test B pre/postemergence blackgrass; format: in vivo, Alopecurus myosuroides
In short: as §1

[4] = test system: sugar beet; assay: Test B pre/postemergence sugar beet; format: in vivo, Beta vulgaris
In short: as §1

[5] = test system: surinam grass; assay: Test B pre/postemergence surinam grass; format: in vivo, Brachiaria decumbens
In short: as §1

[6] = test system: purple nutsedge; assay: Test B pre/postemergence purple nutsedge; format: in vivo, Cyperus rotundus
In short: as §1

[7] = test system: corn; assay: Test B pre/postemergence corn; format: in vivo, Zea mays
In short: as §1

[8] = test system: bedstraw; assay: Test B pre/postemergence bedstraw; format: in vivo, Galium aparine
In short: as §1

[9] = test system: soybean; assay: Test B pre/postemergence soybean; format: in vivo, Glycine max
In short: as §1

[10] = test system: pigweed; assay: Test B pre/postemergence pigweed; format: in vivo, Amaranthus retroflexus
In short: as §1

[11] = test system: morningglory; assay: Test B pre/postemergence morningglory; format: in vivo, Ipomoea hederacea
In short: as §1

[12] = test system: rape; assay: Test B pre/postemergence rape; format: in vivo, Brassica napus
In short: as §1

[13] = test system: wheat; assay: Test B pre/postemergence wheat; format: in vivo, Triticum aestivum
In short: as §1

[14] = test system: velvetleaf; assay: Test B pre/postemergence velvetleaf; format: in vivo, Abutilon theophrasti
In short: as §1

[15] = test system: wild oat; assay: Test B pre/postemergence wild oat; format: in vivo, Avena fatua
In short: as §1

[16] = test system: crabgrass; assay: Test B pre/postemergence crabgrass; format: in vivo, Digitaria sanguinalis
In short: as §1

[17] = Postemergence, Rate 62 g/ha, scale of 0 to 10, 0 is no effect, 10 is complete control
[18] = Postemergence, Rate 125 g/ha, scale 0 to 10, 0 is no effect, 10 is complete control
[19] = Postemergence, Rate 500 g/ha, scale 0 to 10, 0 is no effect, 10 is complete control
[20] = Preemergence, Rate 62 g/ha, scale of 0 to 10 where 0 is no effect and 10 is complete control
[21] = Preemergence, Rate 125 g/ha, scale 0 to 10, 0 is no effect, 10 is complete control
[22] = Preemergence, Rate 500 g/ha, scale of 0 to 10 where 0 is no effect and 10 is complete control
[23] = Postemergence, Rate 250 g/ha, scale 0 to 10
[24] = Preemergence, Rate 250 g/ha, scale 0 to 10, 0 is no effect, 10 is complete control
[25] = Preemergence, Rate 500 g/ha, scale 0 to 10, 0 is no effect, 10 is complete control
[26] = Preemergence, Rate 31 g/ha, visual rating, scale 0 to 10 (0 no effect, 10 complete control)
[27] = Preemergence, Rate 125 g/ha, scale of 0 to 10 where 0 is no effect and 10 is complete control
[28] = Preemergence, Rate 250 g/ha, scale 0 (no effect) to 10 (complete control)

For COC(=O)CCCn1c(=O)on(C(=O)N(c2ccc(F)cc2F)C(C)C)c1=O [Compound 513], the “Giant foxtail plant response rating” value [1, 17] was 1, the “Giant foxtail plant response rating” value [1, 18] was 5 and the “Plant response rating, Giant foxtail” value [1, 19] was 8. The “Plant response rating, Giant foxtail” value [1, 20] was 2, the “Giant foxtail plant response rating” value [1, 21] was 6 and the “Giant foxtail plant response rating” value [1, 22] was 10. For the same molecule, the “Cocklebur plant response rating” value [2, 17] was 3, the “Cocklebur plant response rating” value [2, 18] was 3 and the “Cocklebur plant response rating” value [2, 23] was 6. For the same molecule, the “Plant response rating, Cocklebur” value [2, 19] was 7, the “Plant response rating, Cocklebur” value [2, 20] was 0 and the “Cocklebur plant response rating” value [2, 21] was 0. For the same molecule, the “Cocklebur plant response rating” value [2, 24] was 0, the “Cocklebur plant response rating” value [2, 22] was 0 and the “Blackgrass plant response rating” value [3, 17] was 4. The “Blackgrass plant response rating” value [3, 18] was 4, the “Blackgrass plant response rating” value [3, 23] was 8 and the “Plant response rating, Blackgrass” value [3, 19] was 8. For the same molecule, the “Plant response rating, Blackgrass” value [3, 20] was 1, the “Blackgrass plant response rating” value [3, 21] was 4 and the “Blackgrass plant response rating” value [3, 24] was 4. For the same molecule, the “Blackgrass plant response rating” value [3, 22] was 10, the “Sugarbeets plant response rating” value [4, 17] was 2 and the “Sugarbeets plant response rating” value [4, 18] was 4. For the same molecule, the “Plant response rating, Sugarbeets” value [4, 19] was 7, the “Plant response rating, Sugarbeets” value [4, 20] was 0 and the “Sugarbeets plant response rating” value [4, 21] was 0. For the same molecule, the “Sugarbeets plant response rating” value [4, 22] was 0, the “B. signalgrass plant response rating” value [5, 17] was 0 and the “B. signalgrass plant response rating” value [5, 18] was 3. The “B. signalgrass plant response rating” value ([5]; Postemergence, Rate 250 g/ha, scale 0 to 10, 0 no effect, 10 complete control) was 6, the “Plant response rating, B. signalgrass” value [5, 19] was 8 and the “Plant response rating, B. signalgrass” value [5, 20] was 0. The “B. signalgrass plant response rating” value [5, 21] was 0, the “B. signalgrass plant response rating” value [5, 24] was 5 and the “B. signalgrass plant response rating” value [5, 25] was 9. The “Nutsedge plant response rating” value [6, 17] was 0, the “Nutsedge plant response rating” value [6, 18] was 0 and the “Plant response rating, Nutsedge” value [6, 19] was 5. For the same molecule, the “Plant response rating, Nutsedge” value [6, 20] was 0, the “Nutsedge plant response rating” value [6, 21] was 0 and the “Nutsedge plant response rating” value [6, 22] was 0. For the same molecule, the “Corn plant response rating” value [7, 17] was 0, the “Corn plant response rating” value [7, 18] was 0 and the “Corn plant response rating” value [7, 23] was 0. For the same molecule, the “Plant response rating, Corn” value [7, 19] was 3, the “Plant response rating, Corn” value [7, 20] was 0 and the “Corn plant response rating” value [7, 21] was 0. For the same molecule, the “Corn plant response rating” value [7, 22] was 4, the “Bedstraw plant response rating” value [8, 17] was 6 and the “Plant response rating, Bedstraw” value [8, 20] was 0. For the same molecule, the “Bedstraw plant response rating” value [8, 24] was 0, the “Bedstraw plant response rating” value [8, 25] was 4 and the “Soybean plant response rating” value [9, 17] was 1. The “Soybean plant response rating” value [9, 18] was 7, the “Plant response rating, Soybean” value [9, 19] was 8 and the “Plant response rating, Soybean” value [9, 20] was 0. For the same molecule, the “Soybean plant response rating” value [9, 21] was 0, the “Soybean plant response rating” value [9, 22] was 5 and the “Redroot pigweed plant response rating” value [10, 17] was 3. For the same molecule, the “Redroot pigweed plant response rating” value [10, 18] was 6, the “Plant response rating, Redroot pigweed” value [10, 19] was 7 and the “Plant response rating, Redroot pigweed” value [10, 20] was 7. The “Redroot pigweed plant response rating” value [10, 21] was 7, the “Redroot pigweed plant response rating” value [10, 22] was 10 and the “Morningglory plant response rating” value [11, 17] was 3. For the same molecule, the “Morningglory plant response rating” value [11, 18] was 3, the “Plant response rating, Morningglory” value [11, 19] was 9 and the “Plant response rating, Morningglory” value [11, 20] was 0. For the same molecule, the “Morningglory plant response rating” value [11, 21] was 0, the “Morningglory plant response rating” value [11, 22] was 3 and the “Rape plant response rating” value [12, 17] was 0. The “Rape plant response rating” value [12, 18] was 4, the “Plant response rating, Rape” value [12, 19] was 7 and the “Plant response rating, Rape” value [12, 20] was 0. For the same molecule, the “Rape plant response rating” value [12, 21] was 2, the “Rape plant response rating” value [12, 22] was 7 and the “Wheat plant response rating” value [13, 17] was 3. For the same molecule, the “Wheat plant response rating” value [13, 18] was 5, the “Plant response rating, Wheat” value [13, 19] was 6 and the “Plant response rating, Wheat” value [13, 20] was 0. For the same molecule, the “Wheat plant response rating” value [13, 21] was 2, the “Wheat plant response rating” value [13, 22] was 7 and the “Velvetleaf plant response rating” value [14, 17] was 3. The “Velvetleaf plant response rating” value [14, 18] was 3, the “Plant response rating, Velvetleaf” value [14, 19] was 7 and the “Plant response rating, Velvetleaf” value [14, 20] was 0. The “Velvetleaf plant response rating” value [14, 21] was 0, the “Velvetleaf plant response rating” value [14, 22] was 0 and the “Wild oats plant response rating” value [15, 17] was 0. The “Wild oats plant response rating” value [15, 18] was 4, the “Plant response rating, Wild oats” value [15, 19] was 6 and the “Plant response rating, Wild oats” value [15, 20] was 3. For the same molecule, the “Wild oats plant response rating” value [15, 21] was 3, the “Wild oats plant response rating” value [15, 22] was 10 and the “Crabgrass plant response rating” value [16, 17] was 1. For the same molecule, the “Crabgrass plant response rating” value [16, 18] was 4, the “Crabgrass plant response rating” value [16, 23] was 6 and the “Plant response rating, Crabgrass” value [16, 19] was 9. The “Plant response rating, Crabgrass” value [16, 20] was 4, the “Crabgrass plant response rating” value [16, 21] was 4 and the “Crabgrass plant response rating” value [16, 22] was 5.
With CC(=O)NCCn1c(=O)on(C(=O)N(c2ccc(F)cc2)C(C)C)c1=O [Compound 727] the “Giant foxtail plant response rating” value [1, 26] was 5, the “Giant foxtail plant response rating” value [1, 20] was 7 and the “Plant response rating, Giant foxtail” value [1, 27] was 7. For the same molecule, the “Giant foxtail plant response rating” value [1, 28] was 10, the “Cocklebur plant response rating” value [2, 26] was 0 and the “Cocklebur plant response rating” value [2, 20] was 0. For the same molecule, the “Plant response rating, Cocklebur” value [2, 27] was 0, the “Cocklebur plant response rating” value [2, 28] was 0 and the “Blackgrass plant response rating” value [3, 26] was 0. The “Blackgrass plant response rating” value [3, 20] was 0, the “Plant response rating, Blackgrass” value [3, 27] was 7 and the “Blackgrass plant response rating” value [3, 28] was 8. The “Sugarbeets plant response rating” value [4, 20] was 0, the “Plant response rating, Sugarbeets” value [4, 27] was 0 and the “Sugarbeets plant response rating” value [4, 28] was 0. The “B. signalgrass plant response rating” value [5, 26] was 0, the “B. signalgrass plant response rating” value [5, 20] was 0 and the “Plant response rating, B. signalgrass” value [5, 27] was 6. The “B. signalgrass plant response rating” value [5, 28] was 7, the “Plant response rating, Nutsedge” value [6, 27] was 0 and the “Nutsedge plant response rating” value [6, 28] was 0. For the same molecule, the “Corn plant response rating” value [7, 26] was 0, the “Corn plant response rating” value [7, 20] was 0 and the “Plant response rating, Corn” value [7, 27] was 0. For the same molecule, the “Corn plant response rating” value [7, 28] was 0, the “Bedstraw plant response rating” value [8, 26] was 0 and the “Bedstraw plant response rating” value [8, 20] was 0. The “Plant response rating, Bedstraw” value [8, 27] was 0, the “Bedstraw plant response rating” value [8, 28] was 0 and the “Soybean plant response rating” value [9, 20] was 0. The “Plant response rating, Soybean” value [9, 27] was 0, the “Soybean plant response rating” value [9, 28] was 0 and the “Redroot pigweed plant response rating” value [10, 20] was 0. The “Plant response rating, Redroot pigweed” value [10, 27] was 5, the “Redroot pigweed plant response rating” value [10, 28] was 5 and the “Morningglory plant response rating” value [11, 20] was 0. The “Plant response rating, Morningglory” value [11, 27] was 0, the “Morningglory plant response rating” value [11, 28] was 0 and the “Rape plant response rating” value [12, 20] was 0. For the same molecule, the “Plant response rating, Rape” value [12, 27] was 0, the “Rape plant response rating” value [12, 28] was 1 and the “Wheat plant response rating” value [13, 20] was 0. The “Plant response rating, Wheat” value [13, 27] was 0, the “Wheat plant response rating” value [13, 28] was 0 and the “Velvetleaf plant response rating” value [14, 20] was 0. For the same molecule, the “Plant response rating, Velvetleaf” value [14, 27] was 0, the “Velvetleaf plant response rating” value [14, 28] was 0 and the “Wild oats plant response rating” value [15, 20] was 0. For the same molecule, the “Plant response rating, Wild oats” value [15, 27] was 3, the “Wild oats plant response rating” value [15, 28] was 3 and the “Crabgrass plant response rating” value [16, 26] was 3. The “Crabgrass plant response rating” value [16, 20] was 3, the “Plant response rating, Crabgrass” value [16, 27] was 8 and the “Crabgrass plant response rating” value [16, 28] was 9.
